From ChEMBL document CHEMBL1151429, “Novel drug resistance pattern associated with the mutations K70G and M184V in human immunodeficiency virus type 1 reverse transcriptase” (2007) come the findings set out here.

Format in all cases: functional
Experiment [1] concerns Human immunodeficiency virus 1. The experiment can be described thus: Antiviral activity against HIV1 LAI with reverse transcriptase K70E mutation relative to wild type HIV1 LAI.
Experiment [2] has as its system Human immunodeficiency virus 1. Nature of the experiment: Ratio of IC50 for HIV1 with reverse transcriptase K70E/M184V mutation to IC50 for wild type HIV1.
Experiment [3] concerns Human immunodeficiency virus 1. Nature of the experiment: Ratio of IC50 for HIV1 with reverse transcriptase K70G mutation to IC50 for wild type HIV1.
Experiment [4] deals with Human immunodeficiency virus 1. Nature of the experiment: Ratio of IC50 for HIV1 with reverse transcriptase K70G/M184V mutation to IC50 for wild type HIV1.
The test system of experiment [5] is Human immunodeficiency virus 1. Nature of the experiment: Antiviral activity against HIV1 with reverse transcriptase K70E M184V and K70G M184V mutation by antivirogram biological cutoffs assay relative to wild type HIV1.

Turning to `C[C@H](Cn1cnc2c(N)ncnc21)OCP(=O)(O)OP(=O)(O)OP(=O)(O)O`, the “fold change (FC)” value in experiment [1] is 2.1.
For the compound `Nc1nc(NC2CC2)c2ncn([C@H]3C=C[C@@H](CO)C3)c2n1` [ABACAVIR], the “Ratio IC50” value in experiment [2] is reported as 1.3; in experiment [3], 2.1; in experiment [4] it was 3.2. Also, in experiment [5], the “fold change (FC)” value was determined as 2.2.
Consider `Nc1nc(=O)c2ncn([C@H]3C=C[C@@H](COP(=O)(O)OP(=O)(O)OP(=O)(O)O)C3)c2[nH]1` [CARBOVIR 5'-TRIPHOSPHATE, (-)-], for which, in experiment [1], the “fold change (FC)” value is on record as 2.3.
Turning to `O=c1[nH]cnc2c1ncn2[C@H]1CC[C@@H](CO)O1` [DIDANOSINE], the results for the “Ratio IC50” value in experiment [2], in experiment [3] and in experiment [4] were 1.6, 2.1 and 5.3, respectively. The “fold change (FC)” value in experiment [5] was 2.2.
On to `Nc1nc(=O)n([C@@H]2CS[C@H](CO)O2)cc1F` [EMTRICITABINE], for which the “Ratio IC50” value in experiment [2] is given as more than 40.8; in experiment [4] it was more than 63.4. Further, the “fold change (FC)” value in experiment [5] came to 3.5.
Consider `Nc1ccn([C@@H]2CS[C@H](COP(=O)(O)OP(=O)(O)OP(=O)(O)O)O2)c(=O)n1` [LAMIVUDINE TRIPHOSPHATE], for which the “fold change (FC)” value in experiment [1] is given as 3.5.
In the case of `Nc1ccn([C@@H]2CS[C@H](CO)O2)c(=O)n1` [LAMIVUDINE], the “fold change (FC)” value in experiment [5] worked out at 2.4.
With `Cc1cn([C@H]2C=C[C@@H](CO)O2)c(=O)[nH]c1=O` [STAVUDINE], the “Ratio IC50” value in experiment [2] is 0.4; in experiment [3], 1.3; in experiment [4], 0.9. Besides, the “fold change (FC)” value in experiment [5] was determined as 2.3.
The like results for `C[C@H](Cn1cnc2c(N)ncnc21)OCP(=O)(O)O` [TENOFOVIR ANHYDROUS] were, in that order, 1.7, 1.9, 1.5 and 2.1.
In the case of `Cc1cn([C@H]2C[C@H](N=[N+]=[N-])[C@@H](CO)O2)c(=O)[nH]c1=O` [ZIDOVUDINE], the “Ratio IC50” value was less than 0.3 in experiment [2] and less than 0.8 in experiment [4]. The “fold change (FC)” value in experiment [5] is reported as 2.7.
